Experimental data: patent US10954243B2, “Substituted heterocyclic inhibitors of PTPN11” (NAVIRE PHARMA, INC., priority 2018, dated 2021)
Like-named read-outs stand apart in the source and are kept apart here.

Key:
KYSE-520 cells = experiment: pERK AlphaScreen; format: cell-based; conditions: Homo sapiens
Experimental: KYSE-520 cells (10 k cells/well) were grown in 384-well plate in 20 uL of medium (RPMI-1640, without phenol red, containing 10% FBS) at 37° C. with 5% CO2 overnight. DMSO (control) or increasing concentrations of compounds were diluted in medium, added to the 384-well plate (5 uL/well, final DMSO concentration of 1%), and cells were then incubated with compounds for 2 hr. Phospho-ERK levels were measured using phospho-ERK1/2 AlphaScreen SureFire (PerkinElmer, TGRESB10K) following manufacturer's recommendations. Dose-response curves were analyzed using IC50 regression curve fitting (GeneData Screener). Curves were normalized to a high control without inhibitor (DMSO only), and low control (1 μM selumetinib).

[1] = target: PTPN11-E76K mutant enzyme (Homo sapiens (Human), UniProt Q06124, E76K); experiment: PTPN11 enzymatic assay (DiFMUP phosphatase activity); format: biochemical; conditions: full length PTPN11-E76K mutant, 250 pM enzyme, DiFMUP 50 μM substrate
Chain of PTPN11-E76K mutant enzyme (Q06124 whole entry E76K): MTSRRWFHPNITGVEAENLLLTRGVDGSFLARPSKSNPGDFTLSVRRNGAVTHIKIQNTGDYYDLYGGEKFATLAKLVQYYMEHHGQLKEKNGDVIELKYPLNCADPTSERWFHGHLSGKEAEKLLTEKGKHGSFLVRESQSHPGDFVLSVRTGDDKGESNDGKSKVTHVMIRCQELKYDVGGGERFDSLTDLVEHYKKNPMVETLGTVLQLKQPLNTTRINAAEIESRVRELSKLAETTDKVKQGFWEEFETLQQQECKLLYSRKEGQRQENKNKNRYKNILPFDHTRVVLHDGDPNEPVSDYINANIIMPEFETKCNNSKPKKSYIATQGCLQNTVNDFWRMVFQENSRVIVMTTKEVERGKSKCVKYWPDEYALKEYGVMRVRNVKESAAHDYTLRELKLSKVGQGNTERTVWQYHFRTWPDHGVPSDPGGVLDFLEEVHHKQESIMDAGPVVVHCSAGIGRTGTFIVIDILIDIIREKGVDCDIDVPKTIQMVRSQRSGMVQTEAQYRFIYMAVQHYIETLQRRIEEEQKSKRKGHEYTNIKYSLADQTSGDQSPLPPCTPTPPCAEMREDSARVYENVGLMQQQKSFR
Experimental: Reaction was initiated by addition of DiFMUP (50 μM) at room temperature in 384-well black plate with a final reaction volume of 20 uL in assay buffer. After 1 hour, DiFMUP fluorescence signal was measured (Ex:340/Em:460) using Envision plate reader. Dose-response curves were analyzed using IC50 regression curve fitting (GeneData Screener). Curves were normalized to a high controls without inhibitor, and low controls without enzyme.

[2] = KYSE-520 cells, 2 hr incubation, phospho-ERK1/2 AlphaScreen SureFire, read-out: pERK Avg IC50
[3] = KYSE-520, 2 h, read-out: pERK Avg IC50 (nM)

SMILES | IC50 (KYSE-520 cells; [2]) [nM] | IC50 [1] [nM] | IC50 (KYSE-520 cells; [3]) [nM]
CC1(N)CCN(c2nc3[nH]nc(-c4cccc(Cl)c4Cl)c3nc2O)CC1 [Example 3, 6-(4-amino-4-methylpiperidin-1-yl)-3-(2,3-dichlorophenyl)-1H-pyrazolo[3,4-b]pyrazin-5-ol] | 2000 | 960 | 
CC1(N)CCN(c2nc3[nH]nc(-c4cccc(Cl)c4Cl)c3nc2C#N)CC1 [Example 4, 6-(4-amino-4-methylpiperidin-1-yl)-3-(2,3-dichlorophenyl)-1H-pyrazolo[3,4-b]pyrazine-5-carbonitrile] |  | 465 | 
CC1(N)CCN(c2nc3[nH]nc(-c4cccc(Cl)c4Cl)c3nc2C=O)CC1 [Example 9, 6-(4-amino-4-methylpiperidin-1-yl)-3-(2,3-dichlorophenyl)-1H-pyrazolo[3,4-b]pyrazine-5-carbaldehyde] | 647 | 190 | 
COc1nc2c(-c3cccc(Cl)c3Cl)n[nH]c2nc1N1CCC(C)(N)CC1 [Example 6, 1-(3-(2,3-dichlorophenyl)-5-methoxy-1H-pyrazolo[3,4-b]pyrazin-6-yl)-4-methylpiperidin-4-amine bis(2,2,2-trifluoroacetate)] |  | 950 | 3820
CC1(N)CCN(c2nc3[nH]nc(-c4cccc(Cl)c4Cl)c3nc2C(=O)NO)CC1 [Example 13, 6-(4-Amino-4-methylpiperidin-1-yl)-3-(2,3-dichlorophenyl)-N-hydroxy-1H-pyrazolo[3,4-b]pyrazine-5-carboxamide] | 704 | 224 | 
C[C@@H]1OCC2(CCN(c3nc4[nH]nc(-c5cccc(Cl)c5Cl)c4nc3CO)CC2)[C@@H]1N [Example 16, (6-((3S,4S)-4-amino-3-methyl-2-oxa-8-azaspiro[4.5]decan-8-yl)-3-(2,3-dichlorophenyl)-1H-pyrazolo[3,4-b]pyrazin-5-yl)methanol] | 2 |  | 
C[C@@H]1OCC2(CCN(c3nc4[nH]nc(-c5cccc(OC6COC6)c5Cl)c4nc3CO)CC2)[C@@H]1N [Example 21, (6-((3S,4S)-4-amino-3-methyl-2-oxa-8-azaspiro[4.5]decan-8-yl)-3-(2-chloro-3-(oxetan-3-yloxy)phenyl)-1H-pyrazolo[3,4-b]pyrazin-5-yl)methanol] | 2710 | 558 | 
CNc1nccc(-c2n[nH]c3nc(N4CCC5(CC4)CO[C@@H](C)[C@H]5N)c(CO)nc23)c1Cl [Example 20, (6-((3S,4S)-4-Amino-3-methyl-2-oxa-8-azaspiro[4.5]decan-8-yl)-3-(3-chloro-2-(methylamino)pyridin-4-yl)-1H-pyrazolo[3,4-b]pyrazin-5-yl)methanol] | 2 | 3 | 
CC1(N)CCN(c2nc3[nH]nc(-c4cccc(Cl)c4Cl)c3nc2Br)CC1 [Example 2, 1-(5-bromo-3-(2,3-dichlorophenyl)-1H-pyrazolo[3,4-b]pyrazin-6-yl)-4-methylpiperidin-4-amine] | 580 | 317 | 
C[C@@H]1OCC2(CCN(c3nc4[nH]nc(-c5ccnc(OC6COC6)c5Cl)c4nc3CO)CC2)[C@@H]1N [Example 22, (6-((3S,4S)-4-amino-3-methyl-2-oxa-8-azaspiro[4.5]decan-8-yl)-3-(3-chloro-2-(oxetan-3-yloxy)pyridin-4-yl)-1H-pyrazolo[3,4-b]pyrazin-5-yl)methanol] | 3370 | 48 | 
CCNc1nccc(-c2n[nH]c3nc(N4CCC5(CC4)CO[C@@H](C)[C@H]5N)c(C)nc23)c1Cl [Example 18, (3S,4S)-8-(3-(3-chloro-2-(ethylamino)pyridin-4-yl)-5-methyl-1H-pyrazolo[3,4-b]pyrazin-6-yl)-3-methyl-2-oxa-8-azaspiro[4.5]decan-4-amine 2,2,2-trifluoroacetate] |  | 9 | 20
CNc1nccc(-c2n[nH]c3nc(N4CCC(C)(N)CC4)c(CO)nc23)c1Cl [Example 11, (6-(4-amino-4-methylpiperidin-1-yl)-3-(3-chloro-2-(methylamino)pyridin-4-yl)-1H-pyrazolo[3,4-b]pyrazin-5-yl)methanol] |  | 17 | 
CC1(N)CCN(c2nc3[nH]nc(-c4cccc(Cl)c4Cl)c3nc2C(F)F)CC1 [Example 14, 1-(3-(2,3-dichlorophenyl)-5-(difluoromethyl)-1H-pyrazolo[3,4-b]pyrazin-6-yl)-4-methylpiperidin-4-amine] | 36 | 22 | 
CC1(N)CCN(c2nc3[nH]nc(-c4cccc(Cl)c4Cl)c3nc2CF)CC1 [Example 15, 1-(3-(2,3-dichlorophenyl)-5-(fluoromethyl)-1H-pyrazolo[3,4-b]pyrazin-6-yl)-4-methylpiperidin-4-amine] | 0.4 | 1 | 
Cc1nc2c(-c3cccc(Cl)c3Cl)n[nH]c2nc1N1CCC(C)(N)CC1 [Example 1, 1-(3-(2,3-dichlorophenyl)-5-methyl-1H-pyrazolo[3,4-b]pyrazin-6-yl)-4-methylpiperidin-4-amine] | 93 | 68 | 
CC1(N)CCN(c2nc3[nH]nc(-c4cccc(Cl)c4Cl)c3nc2-c2cc[nH]n2)CC1 [Example 5, 1-(3-(2,3-dichlorophenyl)-5-(1H-pyrazol-3-yl)-1H-pyrazolo[3,4-b]pyrazin-6-yl)-4-methylpiperidin-4-amine] | 1970 | 397 | 
CCNc1nccc(-c2n[nH]c3nc(N4CCC5(CC4)CO[C@@H](C)[C@H]5N)c(Cl)nc23)c1Cl [Example 19, (3S,4S)-8-(5-Chloro-3-(3-chloro-2-(ethylamino)pyridin-4-yl)-1H-pyrazolo[3,4-b]pyrazin-6-yl)-3-methyl-2-oxa-8-azaspiro[4.5]decan-4-amine] | 1 | 6 | 
CC1(N)CCN(c2nc3[nH]nc(-c4cccc(Cl)c4Cl)c3nc2C(N)=O)CC1 [Example 8, 6-(4-amino-4-methylpiperidin-1-yl)-3-(2,3-dichlorophenyl)-1H-pyrazolo[3,4-b]pyrazine-5-carboxamide] |  | 90 | 
CC1(N)CCN(c2nc3[nH]nc(-c4cccc(Cl)c4Cl)c3nc2CO)CC1 [Example 7, (6-(4-amino-4-methylpiperidin-1-yl)-3-(2,3-dichlorophenyl)-1H-pyrazolo[3,4-b]pyrazin-5-yl)methanol] | 97 | 19 | 
CC1(N)CCN(c2nc3[nH]nc(-c4cccc(Cl)c4Cl)c3nc2Cl)CC1 [Example 10, 1-(5-chloro-3-(2,3-dichlorophenyl)-1H-pyrazolo[3,4-b]pyrazin-6-yl)-4-methylpiperidin-4-amine] | 502 | 277 | 
CC(O)c1nc2c(-c3cccc(Cl)c3Cl)n[nH]c2nc1N1CCC(C)(N)CC1 (stereo not drawn) [Example 12, 1-(6-(4-amino-4-methylpiperidin-1-yl)-3-(2,3-dichlorophenyl)-1H-pyrazolo[3,4-b]pyrazin-5-yl)ethanol] | 326 | 372 | 
CCNc1nccc(-c2n[nH]c3nc(N4CCC5(CC4)CO[C@@H](C)[C@H]5N)c(CO)nc23)c1Cl [Example 17, (6-((3S,4S)-4-amino-3-methyl-2-oxa-8-azaspiro[4.5]decan-8-yl)-3-(3-chloro-2-(ethylamino)pyridin-4-yl)-1H-pyrazolo[3,4-b]pyrazin-5-yl)methanol] | 9 |  | 
